Data from patent publication EP0181109B1, “N6-benzopyrano- and benzothiopyrano-adenosines” (WARNER-LAMBERT COMPANY, priority 1984, dated 1986).

System: conscious rat
Experiment: Antihypertensive evaluation (AHP3): direct monitoring of aortic blood pressure and heart rate from conscious rats
Assay type: in vivo
Procedure: This test procedure is described in the following paragraphs.
The continuous monitoring of pulsatile blood pressure (BP) from unrestrained conscious rats surgically equipped with polyethylene cannulas was accomplished by means of a computer assisted data capture scheme (CADCS). The basic elements of the methodology are the cannulation procedure and the CADCS.
Cannulation Procedure: Rats were anesthetized with Telazol (1:1 tiletamine HCI and zolazepam HCI); 20-40 mg/kg IM and the descending aorta exposed via a midline incision. Cannulas fabricated from polyethylene tubing were inserted into the aorta via an undersized puncture hole below the renal arteries. The puncture hole was made by a 23 G disposable needle with a section of the aorta clamped off above and below the puncture site. The cannulas, consisting of a PE100 (0.86 mm ID) body and a PE50 (0.58 mm ID) tip, were attached to a trocar, inserted through the psoas muscle, and passed subcutaneously along the midline of the back and externalized between the ears. The cannulas were anchored to the psoas muscle and between the scalulae (3-0 green braided suture). The midline incision was closed in two steps (muscle first, skin second) using continuous over-and over sutures (4-0 chronic). Each rat was then given penicillin 30,000 units subcutaneously (Penicillin G Procaine Sterile Suspension).
The rats were fitted with a harness-spring-swivel assembly designed to protect the cannula and to provide the rat relative freedom of movement. The harnesses were fabricated from nylon hook and loop tape cemented to a metal plate to which spring wires (18-8 stainless steel), were attached to brass swivels. Each polyethylene cannula was channeled through a spring and connected through a swivel to a pressure transducer (Model P23Gb; Statham Instruments; Hato Rey, Puerto Rico) and an infusion pump (Sage model 234-7; Orion Research, Cambridge, MA) by means of PE100 tubing. While on test, each rat received a continuous slow infusion of heparinized saline solution (approximately 400 I or 40 units of heparin per 24 hour period) to prevent clot formation. Additional "flushes" of the cannula with heparinized saline were carried out when the aortic pulse pressure (systolic minus diastolic) was less than 25 mm Hg.
CADCS: The pulsatile blood pressure and heart rate of each of 32 rats was monitored every minute by means of two in-laboratory microcomputers communicating directly with a data concentrator computer. The data were first stored on the data concentrator disk and the transferred to a magnetic tape for analysis and report generation by the main research computer. The overall scheme involved modulating the primary signal from the pressure transducer, generating the primary data set of the one-minute values for systolic, diastolic, and mean blood pressures and heart rate by the in-lab microcomputer and the storage, analysis, and report generation by the main research computer.
The transducers were connected to analog signal conditioning modules. The modules provided a regulated excitation voltage for the transducers, amplification as required to interface the microprocessors and an active low pass filter to compensate for the pressure wave form distortion produced by the fexible, fluid filled, narrow cannula. The distortion was 22-26 Hz and this provided a reliable estimate of both systolic and diastolic blood pressure.
The microcomputers (one for each of the two groups of 16 rats) were connected to the input components through the module interface units, an analog-to-digital converter for the pressure wave form signal and the digital inputs for the dose and event marker switches. The microcomputer controlled the sequential acquisition of data from the modular interface units through an internal synchronous time-of- day clock/time base generator. […]

[1] = 10 mg/kg, Hour 5, conscious rat
[2] = 10 mg/kg, Hour 3, conscious rat

## OC[C@H]1O[C@@H](n2cnc3c(NC4COc5c(Cl)cccc5C4)ncnc32)[C@H](O)[C@@H]1O (stereo partly drawn) [Example 5]
[1]
  HR change: 0%

## Cc1cc2c(cc1C)OCC(Nc1ncnc3c1ncn3[C@@H]1O[C@H](CO)[C@@H](O)[C@H]1O)C2 (stereo partly drawn) [Example 9, N^6-[6,7-Dimethyl-3-chromanylamino]adenosine]
10 mg/kg, Hour 7, conscious rat
  HR change: 0%

## Cc1ccc2c(c1C)OCC(Nc1ncnc3c1ncn3[C@@H]1O[C@H](CO)[C@@H](O)[C@H]1O)C2 (stereo partly drawn) [Example 10, N^6-[7,8-Dimethyl-3-chromanylamino]adenosine]
3 mg/kg, Hour 5, conscious rat
  HR change: 0%

## Cc1ccc2c(c1C)OC(C)C(Nc1ncnc3c1ncn3[C@@H]1O[C@H](CO)[C@@H](O)[C@H]1O)C2 (stereo partly drawn) [Example 11]
[2]
  HR change: 0%
[1]
  HR change: 0%

## COc1cc(OC)c2c(c1)OC(C)(C)CC2Nc1ncnc2c1ncn2[C@@H]1O[C@H](CO)[C@@H](O)[C@H]1O (stereo partly drawn) [Example 14]
[2]
  MAP change: 0%
